According to patent US7674899B2, “Dimeric azacyclic compounds and their use” (Neurosearch A/S, priority 2004, dated 2010):
Structures can show the parent of a compound that is named as a salt.

Target: T1, α7-subtype of nicotinic receptors (Rattus norvegicus, UniProt Q05941)
T1 construct: Cerebral cortices from male Wistar rats (150-250 g) are homogenised; from tissue; host or cells: rat cerebral cortex membrane homogenate
Assay: In vitro inhibition of 3H-α-bungarotoxine binding in rat brain
Settings: rat cerebral cortex homogenate; 2 nM 3H-α-bungarotoxine; 2 hours at 37° C.

T1 sequence (Q05941 23-502): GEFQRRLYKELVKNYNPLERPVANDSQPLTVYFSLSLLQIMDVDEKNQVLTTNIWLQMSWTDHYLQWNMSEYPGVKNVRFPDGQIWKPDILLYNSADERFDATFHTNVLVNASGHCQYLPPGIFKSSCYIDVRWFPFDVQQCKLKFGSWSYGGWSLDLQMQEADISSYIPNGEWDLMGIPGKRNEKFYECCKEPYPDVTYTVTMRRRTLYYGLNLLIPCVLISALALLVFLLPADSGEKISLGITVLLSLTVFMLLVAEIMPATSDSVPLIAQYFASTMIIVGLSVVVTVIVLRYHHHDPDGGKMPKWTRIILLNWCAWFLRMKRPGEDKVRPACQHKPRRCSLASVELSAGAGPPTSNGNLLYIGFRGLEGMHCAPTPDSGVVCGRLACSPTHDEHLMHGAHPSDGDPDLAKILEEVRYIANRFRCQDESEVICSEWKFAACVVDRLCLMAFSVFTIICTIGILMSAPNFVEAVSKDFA

## c1nc(OC2CN3CCC2CC3)sc1-c1cnc(OC2CN3CCC2CC3)s1 (racemic) [Compound A1, 2,2′-Bis-((±)-1-aza-bicyclo[2.2.2]oct-3-yloxy)-[5,5′]-bithiazolyl fumaric acid salt]
  IC50: 0.2 µM
